# Assays:
# [1] = molecular target: T1, CYP3A4 (Homo sapiens, UniProt P08684); conditions: CYP3A4 inhibitors increase the concentrations of both drugs; cited from earlier work
# [2] = molecular target: T1, CYP3A4; experiment: Drug-drug interactions, CYP3A4 inhibition; assay type: in vitro ADME
# Description: (§1) In steady state, the patient has 24 h coverage despite convenient once daily dosing. […] Both antidepressants and drug withdrawal can decrease the seizure threshold.
# [3] = Compound 2 in treatment of cannabis use disorder (CUD) / cannabis withdrawal; assay type: in vivo, human
# From the text: Compound 2 is used in a combination treatment for cannabis use disorder (CUD). Combinations include use of antidepressants (specifically sedating antidepressants, such as mirtazapine or trazodone), antipsychotics, CB1 agonists such as THC and allosteric CB1 modulators such as Cannabidiol. These agents improve the safety profile of a CB1 inhibitor as described herein, such as compound 2, and lessen the burden of the withdrawal symptoms.
# The benefits of a combination therapy comprising compound 2 and a sedating antidepressant, such as Mirtazapine or Trazodone, are outline in Table 1 below.
# Daily doses such as between about 5 mg and about 100 mg of Compound 2 are efficacious in CUD. Doses of 1-50 mg or 20 to 30 mg may also be used. Compound 2 is also evaluated in combination with daily doses of Mirtazapine at about 15 mg to about 45 mg, or daily doses of Trazodone at about 50 mg to about 400 mg. Mirtazapine is given at bedtime. In another embodiment, Compound 2 and Mirtazapine are formulated and administered as a single oral dosage form, such as a tablet or a capsule.
# [4] = Seizure liability; conditions: in vivo
# Description: as §1
# [5] = Half-life of Compound 2 (once daily dosing, steady state); assay type: in vivo; conditions: accumulation enables slow onset; 24 h coverage in steady state with once daily dosing
# Description: as §1
# [6] = patients taking the drug long term; vs 5%; cited from earlier work
# T1 sequence (P08684 whole entry): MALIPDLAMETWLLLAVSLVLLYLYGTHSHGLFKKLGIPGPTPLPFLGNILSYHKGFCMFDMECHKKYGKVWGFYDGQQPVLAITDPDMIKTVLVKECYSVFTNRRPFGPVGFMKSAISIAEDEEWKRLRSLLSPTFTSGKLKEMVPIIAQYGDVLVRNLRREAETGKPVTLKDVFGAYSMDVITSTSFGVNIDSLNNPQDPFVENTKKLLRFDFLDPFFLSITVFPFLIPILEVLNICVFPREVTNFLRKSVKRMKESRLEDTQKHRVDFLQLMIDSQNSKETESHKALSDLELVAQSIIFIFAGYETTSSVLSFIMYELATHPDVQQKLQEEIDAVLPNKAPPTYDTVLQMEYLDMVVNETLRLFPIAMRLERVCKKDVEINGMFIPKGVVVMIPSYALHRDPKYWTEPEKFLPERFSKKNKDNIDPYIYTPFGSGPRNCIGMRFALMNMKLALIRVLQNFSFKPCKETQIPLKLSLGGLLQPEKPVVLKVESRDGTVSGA
smiles,measurement,setting,value
O=c1n(CCCN2CCN(c3cccc(Cl)c3)CC2)nc2ccccn12 [Trazodone],metabolizing enzyme,[1],metabolized by CYP3A4
"CC(C)(C)NC(=O)N1CC(O[C@H](c2ccc(Cl)cc2)c2ccccc2C(F)(F)F)C1 [Compound 2, (R)—N-(tert-butyl)-3-((4-chlorophenyl)(2-(trifluoromethyl)phenyl)methoxy)azetidine-1-carboxamide]","drug-drug interactions, particularly CYP3A4 inhibition",[2],"Lack of drug-drug interactions, particularly CYP3A4 inhibition"
same,Effect of Compound 2 on anxiety (withdrawal symptoms),[3]; cannabis withdrawal,Increases anxiety
same,Effect of Compound 2 on high probability of THC use/relapse: anti-addictive properties,[3]; cannabis withdrawal,has anti-addictive
same,Effect of Compound 2 on high probability of THC use/relapse: getting high,[3]; cannabis withdrawal,Blocks getting high +
same,Effect of Compound 2 on mood,[3]; cannabis withdrawal,Depressed mood
same,Effect of Compound 2 on sleep problems (withdrawal symptoms),[3]; cannabis withdrawal,Increases sleep
same,Effect of Compound 2 on weight,[3]; cannabis withdrawal,Weight loss
same,efficacy in CUD,[3]; daily doses between about 5 mg and about 100 mg,efficacious
same,seizure liability,[4],Lack of seizure liability
same,half-life,[5],Long half-life
Cc1c(C(=O)NN2CCCCC2)nn(-c2ccc(Cl)cc2Cl)c1-c1ccc(Cl)cc1 [Rimonabant],incidence of depression,[6],9%
CN1CCN2c3ncccc3Cc3ccccc3C2C1 (stereo not shown) [Mirtazapine],metabolizing enzyme,[1],metabolized by CYP3A4
